Source: US6479435B1, “Diaryl ethers and processes for their preparation and herbicidal and desiccant compositions containing them” (ISK Americas Incorporated, priority 1997, dated 2002)

Tests used:
Format in all cases: in vivo
[1] = tested on: lambsquarters (Chenopodium album, CHEAL); assay: Post-emerge greenhouse herbicide test, phytotoxicity rating; conditions: 1000 g al/ha, 14 days after application
Excerpt: (§1) A standard greenhouse herbicide activity screening system was used to evaluate the herbicidal efficacy and crop safety of these test compounds. Six broadleaf weed species including redroot pigweed (Amaranthus retroflexus, AMARE), velvetleaf (Abutilon theophrasti, ABUTH), sicklepod (Cassia obtusifolia, CASOB), ivyleaf morningglory (Ipomoea hederacea, IPOHE), lambsquarters (Chenopodium album, CHEAL) and common ragweed (Ambrosia artemisiifolia L., AMBEL) were used as test species. Four grass weed species including green foxtail (Setaria viridis, SETVI), barnyardgrass (Echinochloa crusgalli, ECHCG), Johnsongrass (Sorghum halepense, SORHA), and large crabgrass (Digitaria sanguinalis, DIGSA) were also used. In addition, three crop species, field corn (Zea mays L., var. Dekalb 535, CORN), soybean (Glycine max L., var. Pella 86, SOY), and upland rice (Oryza sp., var.Tebonnet, RICE) were included.
(§2) All test compounds were dissolved in acetone and applied to the test units in a volume of 187 l/ha. Test materials were applied at rates ranging from 125 g ai/ha to 1000 g ai/ha using a track sprayer equipped with a TJ8001E even flow flat fan spray nozzle. Plants were arranged on a shelf so that the top of the canopy (post-emerge) or top of the soil surface (pre-emerge) was 40-45 cm below the nozzle. Pressurized air was used to force the test solution through the nozzle as it was mechanically advanced (via electrically driven chain drive) over the top of all test plants/pots. This application simulates a typical commercial field herbicide application.
(§3) In the post-emerge test, a commercial non-ionic surfactant was also included (0.25% v/v) to enhance wetting of the leaf surfaces Qf target plants at rates ranging from 63 g ai/ha to 1000 g ai/ha. For post-emerge tests, seeds were planted 8-21 days prior to the test to allow emergence and good foliage development prior to application of the test substances. At the time of the post-emerge application, plants of all species were usually at the 2-3 leaf stage of development. Post-emerge test units were always bottom-watered.
(§4) At 14 days after application of the test materials, phytotoxicity ratings were recorded. A rating scale of 0-100 was used as previously described in Research Methods in Weed Science, 2nd edition, B. Truelove, Ed., Southern Weed Science Society, Auburn University, Auburn, Ala., 1977. Briefly, “0” corresponds to no damage and “100” corresponds to complete death of all plants in the test unit. This scale was used both to determine efficacy against weed species and damage to crop species. Herbicide activity data for various compounds of this invention, which are shown by compound number in Tables 1-9, are shown in Tables 13 and 14.

[2] = tested on: velvetleaf (Abutilon theophrasti, ABUTH); assay: as above; conditions: 1000 g al/ha, 14 days after application
Excerpt: as §1, §2, §3, §4

[3] = tested on: green foxtail (Setaria viridis, SETVI); assay: as above; conditions: 1000 g al/ha, 14 days after application
Excerpt: as §1, §2, §3, §4

[4] = tested on: large crabgrass (Digitaria sanguinalis, DIGSA); assay: as above; conditions: 1000 g al/ha, 14 days after application
Excerpt: as §1, §2, §3, §4

[5] = tested on: ivyleaf morningglory (Ipomoea hederacea, IPOHE); assay: as above; conditions: 1000 g al/ha, 14 days after application
Excerpt: as §1, §2, §3, §4

[6] = tested on: sicklepod (Cassia obtusifolia, CASOB); assay: as above; conditions: 1000 g al/ha, 14 days after application
Excerpt: as §1, §2, §3, §4

[7] = tested on: Johnsongrass (Sorghum halepense, SORHA); assay: as above; conditions: 1000 g al/ha, 14 days after application
Excerpt: as §1, §2, §3, §4

[8] = tested on: redroot pigweed (Amaranthus retroflexus, AMARE); assay: as above; conditions: 1000 g al/ha, 14 days after application
Excerpt: as §1, §2, §3, §4

[9] = tested on: barnyardgrass (Echinochloa crusgalli, ECHCG); assay: as above; conditions: 1000 g al/ha, 14 days after application
Excerpt: as §1, §2, §3, §4

[10] = tested on: upland rice (Oryza sp., var.Tebonnet, RICE); assay: Post-emerge greenhouse test, crop damage rating; conditions: 1000 g al/ha, 14 days after application
Excerpt: as §1, §2, §3, §4

[11] = tested on: field corn (Zea mays L., var. Dekalb 535, CORN); assay: Post-emerge greenhouse test, crop damage rating; conditions: 1000 g al/ha, 14 days after application
Excerpt: as §1, §2, §3, §4

[12] = tested on: lambsquarters (Chenopodium album, CHEAL); assay: Pre-emerge greenhouse herbicide test, phytotoxicity rating; conditions: 1000 g ai/ha, 14 days after application, rating scale 0-100
Excerpt: as §1
(§5) All plants were grown in 10 cm square plastic pots which were filled with a sandy loam soil mix. For preemerge tests, seeds were planted one day prior to application of the test compounds. Immediately after application, test units of the pre-emerge applications were watered at the soil surface to incorporate the test materials. Subsequently, these test units were bottom-watered.
as §2, §4

[13] = tested on: velvetleaf (Abutilon theophrasti, ABUTH); assay: as above; conditions: 1000 g ai/ha, 14 days after application, rating scale 0-100
Excerpt: as §1, §5, §2, §4

[14] = tested on: green foxtail (Setaria viridis, SETVI); assay: as above; conditions: 1000 g ai/ha, 14 days after application, rating scale 0-100
Excerpt: as §1, §5, §2, §4

[15] = tested on: large crabgrass (Digitaria sanguinalis, DIGSA); assay: as above; conditions: 1000 g ai/ha, 14 days after application, rating scale 0-100
Excerpt: as §1, §5, §2, §4

[16] = tested on: ivyleaf morningglory (Ipomoea hederacea, IPOHE); assay: as above; conditions: 1000 g ai/ha, 14 days after application, rating scale 0-100
Excerpt: as §1, §5, §2, §4

[17] = tested on: sicklepod (Cassia obtusifolia, CASOB); assay: as above; conditions: 1000 g ai/ha, 14 days after application, rating scale 0-100
Excerpt: as §1, §5, §2, §4

[18] = tested on: Johnsongrass (Sorghum halepense, SORHA); assay: as above; conditions: 1000 g ai/ha, 14 days after application, rating scale 0-100
Excerpt: as §1, §5, §2, §4

[19] = tested on: redroot pigweed (Amaranthus retroflexus, AMARE); assay: as above; conditions: 1000 g ai/ha, 14 days after application, rating scale 0-100
Excerpt: as §1, §5, §2, §4

[20] = tested on: barnyardgrass (Echinochloa crusgalli, ECHCG); assay: as above; conditions: 1000 g ai/ha, 14 days after application, rating scale 0-100
Excerpt: as §1, §5, §2, §4

[21] = tested on: soybean (Glycine max L., var. Pella 86, SOY); assay: Pre-emerge greenhouse test, crop damage rating; conditions: 1000 g ai/ha, 14 days after application, rating scale 0-100
Excerpt: as §1, §5, §2, §4

[22] = tested on: soybean (Glycine max L., var. Pella 86, SOY); assay: Post-emerge greenhouse test, crop damage rating; conditions: 1000 g al/ha, 14 days after application
Excerpt: as §1, §2, §3, §4

[23] = tested on: upland rice (Oryza sp., var.Tebonnet, RICE); assay: Pre-emerge greenhouse test, crop damage rating; conditions: 1000 g ai/ha, 14 days after application, rating scale 0-100
Excerpt: as §1, §5, §2, §4

[24] = tested on: field corn (Zea mays L., var. Dekalb 535, CORN); assay: Pre-emerge greenhouse test, crop damage rating; conditions: 1000 g ai/ha, 14 days after application, rating scale 0-100
Excerpt: as §1, §5, §2, §4

Row | SMILES | CHEAL phytotoxicity rating (0-100) [1] | ABUTH phytotoxicity rating (0-100) [2] | SETVI phytotoxicity rating (0-100) [3] | DIGSA phytotoxicity rating (0-100) [4] | IPOHE phytotoxicity rating (0-100) [5] | CASOB phytotoxicity rating (0-100) [6] | SORHA phytotoxicity rating (0-100) [7] | AMARE phytotoxicity rating (0-100) [8] | ECHCG phytotoxicity rating (0-100) [9] | RICE crop damage rating (0-100) [10] | CORN crop damage rating (0-100) [11] | phytotoxicity rating CHEAL [12] | phytotoxicity rating ABUTH [13] | phytotoxicity rating SETVI [14] | phytotoxicity rating DIGSA [15] | phytotoxicity rating IPOHE [16] | phytotoxicity rating CASOB [17] | phytotoxicity rating SORHA [18] | phytotoxicity rating AMARE [19] | phytotoxicity rating ECHCG [20] | further results
1 | CCOC(=O)C(C)Oc1ccc(Oc2cc(-n3c(=O)cc4n(c3=O)CCC4)c(F)cc2Cl)cc1 (stereo not drawn) [Compound 5-6] | 100 | 100 | 50 | 40 | 100 | 40 | 95 | 90 | 95 | 60 | 80 | 100 | 100 | 100 | 70 | 100 | 40 | 50 | 100 | 70 | crop damage rating SOY [21]: 60; SOY crop damage rating (0-100) [22]: 80; crop damage rating RICE [23]: 80; crop damage rating CORN [24]: 40
2 | O=c1cc2n(c(=O)n1-c1cc(Oc3ncccc3[N+](=O)[O-])c(Cl)cc1F)CCC2 [Compound 5-8] | 60 | 100 | 10 | 0 | 80 | 30 | 0 | 40 | 0 | 0 | 0 | 100 | 100 | 95 | 100 | 80 | 0 | 95 | 100 | 85 | crop damage rating SOY [21]: 50; SOY crop damage rating (0-100) [22]: 20; crop damage rating RICE [23]: 50; crop damage rating CORN [24]: 15
